The text below walks through data of ChEMBL document CHEMBL3994582, “A2B adenosine receptor antagonists: Design, synthesis and biological evaluation of novel xanthine derivatives” (Eur J Med Chem, 2017).

A value given as a limit tells only on which side of the number the result lay.

As a reminder, the Ki is the dissociation constant of the complex between target and ligand, obtained from inhibition or displacement. In general, inhibition refers to the percentage by which the read-out fell short of the control.

The target of the first data set is T1, Adenosine receptor A2b (Homo sapiens, UniProt P29275).
T1 sequence (P29275 whole entry): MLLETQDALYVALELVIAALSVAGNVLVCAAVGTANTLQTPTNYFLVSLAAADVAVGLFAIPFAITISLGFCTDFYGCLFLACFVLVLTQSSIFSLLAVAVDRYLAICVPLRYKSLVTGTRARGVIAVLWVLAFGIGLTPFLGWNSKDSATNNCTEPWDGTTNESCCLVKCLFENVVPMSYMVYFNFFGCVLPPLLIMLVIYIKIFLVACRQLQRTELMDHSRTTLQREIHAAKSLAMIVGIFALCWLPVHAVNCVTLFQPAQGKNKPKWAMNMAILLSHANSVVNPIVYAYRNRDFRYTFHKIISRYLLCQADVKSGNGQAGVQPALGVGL
The data set is described as follows: Displacement of [3H]-MRS-1754 from human adenosine receptor A2b expressed in HEK293 cell membranes after 90 mins by liquid scintillation counting method.
Details: not given
Compound `CCCn1c(=O)c2[nH]c(-c3cc(OCC4CC(=O)N(c5ccc(C(F)(F)F)cc5)C4)no3)nc2n(CCC)c1=O` (centres undefined) displayed an inhibitory constant (Ki) of 12.8 nM.
The same measure, in the same setting: the value for `CCCn1c(=O)c2[nH]c(-c3cnn(CC4CCN(c5ccc(OC(F)(F)F)cc5)C4=O)c3)nc2n(CCC)c1=O` (centres undefined) was 6 to 8 nM; that for `CCCn1c(=O)c2[nH]c(-c3ccc(OCC4CC(=O)N(c5ccc(F)cc5)C4)nc3)nc2n(CCC)c1=O` (centres undefined) was 4 nM.
Turning to `CCCn1c(=O)c2[nH]c(-c3ccc(OCC4CC(=O)N(c5ccc(C(F)(F)F)cc5)C4)nc3)nc2n(CCC)c1=O` (centres undefined), the inhibition constant Ki amounted to 3 nM.

The target of the next data set is T2, Adenosine receptor A1 (Homo sapiens) (UniProt P30542).
T2 sequence (whole entry): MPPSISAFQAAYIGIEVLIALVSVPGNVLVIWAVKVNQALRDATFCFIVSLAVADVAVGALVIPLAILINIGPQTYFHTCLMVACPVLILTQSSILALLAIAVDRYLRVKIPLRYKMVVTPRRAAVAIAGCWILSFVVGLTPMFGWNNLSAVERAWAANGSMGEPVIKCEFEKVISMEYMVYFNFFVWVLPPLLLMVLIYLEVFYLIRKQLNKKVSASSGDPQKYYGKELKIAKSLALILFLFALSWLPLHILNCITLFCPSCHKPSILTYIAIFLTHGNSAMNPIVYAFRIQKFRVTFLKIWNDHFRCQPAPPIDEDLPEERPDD
Kind of data set: Displacement of [3H]DPCPX from human adenosine receptor A1 expressed in HEK293 cell membranes at 0.1 uM after 90 mins by liquid scintillation counting method relative to control.
Details: not given
A general note: In a radioligand displacement assay an active substance lowers the binding of a labelled ligand.
As to `CCCn1c(=O)c2[nH]c(-c3cc(OCC4CC(=O)N(c5ccc(C(F)(F)F)cc5)C4)no3)nc2n(CCC)c1=O` (centres undefined), the inhibition turned out to be 0%.
With `CCCn1c(=O)c2[nH]c(-c3cnn(CC4CCN(c5ccc(OC(F)(F)F)cc5)C4=O)c3)nc2n(CCC)c1=O` (centres undefined), the inhibition stood at 51%.
The same measure, in the same setting: the value for `CCCn1c(=O)c2[nH]c(-c3ccc(OCC4CC(=O)N(c5ccc(F)cc5)C4)nc3)nc2n(CCC)c1=O` (centres undefined) was 30%.
The compound `CCCn1c(=O)c2[nH]c(-c3ccc(OCC4CC(=O)N(c5ccc(C(F)(F)F)cc5)C4)nc3)nc2n(CCC)c1=O` (centres undefined) yielded an inhibition of 25%.

The target in a further data set is T3, Adenosine receptor A2a (Homo sapiens, UniProt P29274). The data set is described as follows: Displacement of [3H]-ZM-241385 from human adenosine receptor A2a expressed in HEK293 cell membranes at 0.1 uM after 90 mins by liquid scintillation counting method relative to control.
T3 sequence (P29274 whole entry): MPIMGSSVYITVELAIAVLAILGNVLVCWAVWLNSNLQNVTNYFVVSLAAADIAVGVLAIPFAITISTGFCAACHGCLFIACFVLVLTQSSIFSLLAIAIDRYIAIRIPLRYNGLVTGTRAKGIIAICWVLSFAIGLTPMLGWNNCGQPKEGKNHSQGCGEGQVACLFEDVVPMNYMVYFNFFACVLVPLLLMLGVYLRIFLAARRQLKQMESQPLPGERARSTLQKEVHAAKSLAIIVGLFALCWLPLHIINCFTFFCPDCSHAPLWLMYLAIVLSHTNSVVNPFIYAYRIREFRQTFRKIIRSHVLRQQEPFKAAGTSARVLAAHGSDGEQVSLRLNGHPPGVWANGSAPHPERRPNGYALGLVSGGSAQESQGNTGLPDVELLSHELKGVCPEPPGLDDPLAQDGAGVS
Details: not given
The compound `CCCn1c(=O)c2[nH]c(-c3cc(OCC4CC(=O)N(c5ccc(C(F)(F)F)cc5)C4)no3)nc2n(CCC)c1=O` (centres undefined) returned an inhibition of 18%.
The same measure, in the same setting: under `CCCn1c(=O)c2[nH]c(-c3cnn(CC4CCN(c5ccc(OC(F)(F)F)cc5)C4=O)c3)nc2n(CCC)c1=O` (centres undefined) stands 7%; under `CCCn1c(=O)c2[nH]c(-c3ccc(OCC4CC(=O)N(c5ccc(F)cc5)C4)nc3)nc2n(CCC)c1=O` (centres undefined), 80%.
The same measure, in the same setting: under `CCCn1c(=O)c2[nH]c(-c3ccc(OCC4CC(=O)N(c5ccc(C(F)(F)F)cc5)C4)nc3)nc2n(CCC)c1=O` (centres undefined) stands 46%.

Another data set has as its target T4, Adenosine receptor A3 (Homo sapiens) (UniProt P0DMS8).
T4 sequence (whole entry): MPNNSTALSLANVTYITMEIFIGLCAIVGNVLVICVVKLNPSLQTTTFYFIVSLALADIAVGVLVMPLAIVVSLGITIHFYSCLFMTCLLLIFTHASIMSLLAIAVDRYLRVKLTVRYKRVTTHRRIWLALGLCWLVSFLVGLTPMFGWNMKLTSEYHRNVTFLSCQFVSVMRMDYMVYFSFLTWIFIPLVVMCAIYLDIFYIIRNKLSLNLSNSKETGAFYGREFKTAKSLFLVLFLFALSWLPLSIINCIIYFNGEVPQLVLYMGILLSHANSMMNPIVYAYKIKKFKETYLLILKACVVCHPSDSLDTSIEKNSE
Kind of data set: Displacement of [3H]-HEM-ADO from human adenosine receptor A3 expressed in HEK293 cell membranes at 1 uM after 90 mins by liquid scintillation counting method relative to control.
Details: not given
`CCCn1c(=O)c2[nH]c(-c3cc(OCC4CC(=O)N(c5ccc(C(F)(F)F)cc5)C4)no3)nc2n(CCC)c1=O` (centres undefined) had an inhibition of 0%.
`CCCn1c(=O)c2[nH]c(-c3cnn(CC4CCN(c5ccc(OC(F)(F)F)cc5)C4=O)c3)nc2n(CCC)c1=O` (centres undefined): the inhibition was 32%.
On the same count and under the same terms, under `CCCn1c(=O)c2[nH]c(-c3ccc(OCC4CC(=O)N(c5ccc(F)cc5)C4)nc3)nc2n(CCC)c1=O` (centres undefined) stands 53%.
On the same count and under the same terms, under `CCCn1c(=O)c2[nH]c(-c3ccc(OCC4CC(=O)N(c5ccc(C(F)(F)F)cc5)C4)nc3)nc2n(CCC)c1=O` (centres undefined) stands 0%.

Test system in another data set: not listed separately
The data set is described as follows: Solubility of the compound. It is filed as physicochemical.
Details: not given
As to `CCCn1c(=O)c2[nH]c(-c3ccc(OCC4CC(=O)N(c5ccc(F)cc5)C4)nc3)nc2n(CCC)c1=O` (centres undefined), the solubility result is given as “Insoluble”.
Turning to `CCCn1c(=O)c2[nH]c(-c3ccc(OCC4CC(=O)N(c5ccc(C(F)(F)F)cc5)C4)nc3)nc2n(CCC)c1=O` (centres undefined), the solubility entry was “Insoluble”.

The next data set concerns Liver. The data set is described as follows: Metabolic stability in mouse liver microsomes assessed as metabolic rate per mg protein preincubated for 5 mins followed by NADPH addition measured up to 30 mins by LC-MS/MS analysis. It is filed as ADME, microsome. The note with it: 0.5 h. (In general: Liver microsomes are a subcellular fraction often used to study metabolism.)
As to `CCCn1c(=O)c2[nH]c(-c3cc(OCC4CC(=O)N(c5ccc(C(F)(F)F)cc5)C4)no3)nc2n(CCC)c1=O` (centres undefined), the Drug metabolism amounted to 0.04 nmol/min/mg.
For `CCCn1c(=O)c2[nH]c(-c3cnn(CC4CCN(c5ccc(OC(F)(F)F)cc5)C4=O)c3)nc2n(CCC)c1=O` (centres undefined), the Drug metabolism was 0.03 nmol/min/mg.
Same read-out and setting: under `CCCn1c(=O)c2[nH]c(-c3ccc(OCC4CC(=O)N(c5ccc(C(F)(F)F)cc5)C4)nc3)nc2n(CCC)c1=O` (centres undefined) stands 0 nmol/min/mg.

In another data set the test system is Liver. Kind of data set: Metabolic stability in human liver microsomes assessed as metabolic rate per mg protein preincubated for 5 mins followed by NADPH addition measured up to 30 mins by LC-MS/MS analysis. The note with it: 0.5 h. The class given is ADME, microsome.
Consider `CCCn1c(=O)c2[nH]c(-c3cc(OCC4CC(=O)N(c5ccc(C(F)(F)F)cc5)C4)no3)nc2n(CCC)c1=O` (centres undefined), for which the Drug metabolism worked out at 0.07 nmol/min/mg.
Same read-out and setting: the value for `CCCn1c(=O)c2[nH]c(-c3cnn(CC4CCN(c5ccc(OC(F)(F)F)cc5)C4=O)c3)nc2n(CCC)c1=O` (centres undefined) was 0.02 nmol/min/mg.
On the same count and under the same terms, the value for `CCCn1c(=O)c2[nH]c(-c3ccc(OCC4CC(=O)N(c5ccc(C(F)(F)F)cc5)C4)nc3)nc2n(CCC)c1=O` (centres undefined) was 0.02 nmol/min/mg.

The target of the next data set is T5, Adenosine receptor A1 (Homo sapiens, UniProt P30542).
T5 sequence (P30542 whole entry): T2 sequence (whole entry)
The data set is described as follows: Displacement of [3H]DPCPX from human adenosine receptor A1 expressed in HEK293 cell membranes after 90 mins by liquid scintillation counting method.
Details: not given
For `CCCn1c(=O)c2[nH]c(-c3cc(OCC4CC(=O)N(c5ccc(C(F)(F)F)cc5)C4)no3)nc2n(CCC)c1=O` (centres undefined), the Ki came to 4200 nM.
Regarding `CCCn1c(=O)c2[nH]c(-c3cnn(CC4CCN(c5ccc(OC(F)(F)F)cc5)C4=O)c3)nc2n(CCC)c1=O` (centres undefined), the Ki stood at 340 nM.
On to `CCCn1c(=O)c2[nH]c(-c3ccc(OCC4CC(=O)N(c5ccc(C(F)(F)F)cc5)C4)nc3)nc2n(CCC)c1=O` (centres undefined), for which the Ki was > 800 nM.

Another data set concerns the target T3, Adenosine receptor A2a. Kind of data set: Displacement of [3H]-ZM-241385 from human adenosine receptor A2a expressed in HEK293 cell membranes after 90 mins by liquid scintillation counting method.
Details: not given
Turning to `CCCn1c(=O)c2[nH]c(-c3cc(OCC4CC(=O)N(c5ccc(C(F)(F)F)cc5)C4)no3)nc2n(CCC)c1=O` (centres undefined), the Ki worked out at 2900 nM.
Same read-out and setting: the value for `CCCn1c(=O)c2[nH]c(-c3cnn(CC4CCN(c5ccc(OC(F)(F)F)cc5)C4=O)c3)nc2n(CCC)c1=O` (centres undefined) was 36 nM; that for `CCCn1c(=O)c2[nH]c(-c3ccc(OCC4CC(=O)N(c5ccc(C(F)(F)F)cc5)C4)nc3)nc2n(CCC)c1=O` (centres undefined) was 53 nM.

For a further data set, the species on record is Homo sapiens. Kind of data set: Selectivity ratio of Ki for human adenosine receptor A1 expressed in HEK293 cell membranes to Ki for human adenosine receptor A2b expressed in HEK293 cell membranes.
Details: not given
The class given is cell-based.
With `CCCn1c(=O)c2[nH]c(-c3cc(OCC4CC(=O)N(c5ccc(C(F)(F)F)cc5)C4)no3)nc2n(CCC)c1=O` (centres undefined), the Ratio Ki was determined as 328.
As to `CCCn1c(=O)c2[nH]c(-c3cnn(CC4CCN(c5ccc(OC(F)(F)F)cc5)C4=O)c3)nc2n(CCC)c1=O` (centres undefined), the Ratio Ki was found to be 56.
In the case of `CCCn1c(=O)c2[nH]c(-c3ccc(OCC4CC(=O)N(c5ccc(C(F)(F)F)cc5)C4)nc3)nc2n(CCC)c1=O` (centres undefined), the Ratio Ki was > 266.

A further data set is filed under the species Homo sapiens. Kind of data set: Selectivity ratio of Ki for human adenosine receptor A2a expressed in HEK293 cell membranes to Ki for human adenosine receptor A2b expressed in HEK293 cell membranes.
Details: not given
The class given is cell-based.
In the case of `CCCn1c(=O)c2[nH]c(-c3cc(OCC4CC(=O)N(c5ccc(C(F)(F)F)cc5)C4)no3)nc2n(CCC)c1=O` (centres undefined), the Ratio Ki came to 226.
Still for that read-out and setting: under `CCCn1c(=O)c2[nH]c(-c3cnn(CC4CCN(c5ccc(OC(F)(F)F)cc5)C4=O)c3)nc2n(CCC)c1=O` (centres undefined) stands 6; under `CCCn1c(=O)c2[nH]c(-c3ccc(OCC4CC(=O)N(c5ccc(C(F)(F)F)cc5)C4)nc3)nc2n(CCC)c1=O` (centres undefined), 17.

The target in a further data set is T1, Adenosine receptor A2b. The data set is described as follows: Antagonist activity at human adenosine receptor A2b expressed in HEK293 cells assessed as inhibition of NECA-induced cAMP level preincubated for 15 mins followed by NECA stimulation for 15 mins by HTRF assay. The class given is functional, cell-based.
Details: not given
On the technique in general: Cyclic AMP is a second messenger, typically raised through Gs and lowered through Gi signalling.
Turning to `CCCn1c(=O)c2[nH]c(-c3cc(OCC4CC(=O)N(c5ccc(C(F)(F)F)cc5)C4)no3)nc2n(CCC)c1=O` (centres undefined), the Ki stood at 540 nM.
Take `CCCn1c(=O)c2[nH]c(-c3cnn(CC4CCN(c5ccc(OC(F)(F)F)cc5)C4=O)c3)nc2n(CCC)c1=O` (centres undefined): the Ki turned out to be 191 nM.
Still for that read-out and setting: under `CCCn1c(=O)c2[nH]c(-c3ccc(OCC4CC(=O)N(c5ccc(C(F)(F)F)cc5)C4)nc3)nc2n(CCC)c1=O` (centres undefined) stands 71 nM.
